Test: excess molar enthalpy (molar enthalpy of mixing); xn = mol fraction of the nth substance listed
Details: Liquid, Flow calorimetry

CC(=O)CC(C)=O [2,4-pentanedione] + CC(C)O
excess molar enthalpy [kcal/mol]
Details	298.15 K	313.15 K	328.15 K
100 kPa, x1 = 0.0503	0.0985	0.101	0.103
100 kPa, x1 = 0.1501	0.235	0.247	0.262
100 kPa, x1 = 0.2502	0.321	0.344	0.365
100 kPa, x1 = 0.3499	0.374	0.403	0.43
100 kPa, x1 = 0.3997	0.39	0.421	0.448
100 kPa, x1 = 0.4498	0.401	0.432	0.459
100 kPa, x1 = 0.5001	0.405	0.436	0.462
100 kPa, x1 = 0.5507	0.403	0.432	0.457
100 kPa, x1 = 0.6	0.395	0.42	0.444
100 kPa, x1 = 0.6493	0.38	0.402	0.422
100 kPa, x1 = 0.7	0.356	0.376	0.393
100 kPa, x1 = 0.7999	0.285	0.296	0.305
100 kPa, x1 = 0.8503	0.234	0.238	0.246
100 kPa, x1 = 0.9504	0.0914	0.0934	0.0939
10000 kPa, x1 = 0.0502	0.0928	0.0986	0.103
10000 kPa, x1 = 0.1497	0.224	0.245	0.258
10000 kPa, x1 = 0.2496	0.312	0.341	0.362
10000 kPa, x1 = 0.3492	0.367	0.402	0.426
10000 kPa, x1 = 0.3989	0.384	0.42	0.445
10000 kPa, x1 = 0.449	0.395	0.431	0.456
10000 kPa, x1 = 0.4993	0.4	0.435	0.46
10000 kPa, x1 = 0.5498	0.399	0.431	0.455
10000 kPa, x1 = 0.5992	0.391	0.42	0.443
10000 kPa, x1 = 0.6486	0.376	0.401	0.422
10000 kPa, x1 = 0.6994	0.354	0.374	0.392
10000 kPa, x1 = 0.7993	0.284	0.294	0.304
10000 kPa, x1 = 0.8499	0.234	0.238	0.244
10000 kPa, x1 = 0.9503	0.0908	0.0922	0.0924

CC(=O)CC(C)=O [2,4-pentanedione] + CCCO
excess molar enthalpy [kcal/mol]
Details	298.15 K	313.15 K	328.15 K
100 kPa, x1 = 0.0502	0.0721	0.0788	0.0869
100 kPa, x1 = 0.1502	0.184	0.205	0.224
100 kPa, x1 = 0.2502	0.259	0.289	0.321
100 kPa, x1 = 0.3504	0.311	0.347	0.385
100 kPa, x1 = 0.4001	0.327	0.364	0.404
100 kPa, x1 = 0.4502	0.338	0.374	0.416
100 kPa, x1 = 0.5006	0.344	0.38	0.421
100 kPa, x1 = 0.5501	0.344	0.378	0.419
100 kPa, x1 = 0.5997	0.339	0.371	0.41
100 kPa, x1 = 0.6495	0.327	0.355	0.392
100 kPa, x1 = 0.6994	0.309	0.333	0.366
100 kPa, x1 = 0.8006	0.248	0.261	0.286
100 kPa, x1 = 0.8504	0.202	0.211	0.233
100 kPa, x1 = 0.9493	0.0794	0.0835	0.0913
10000 kPa, x1 = 0.0502	0.0712	0.0775	0.0866
10000 kPa, x1 = 0.1504	0.181	0.201	0.222
10000 kPa, x1 = 0.2504	0.258	0.285	0.317
10000 kPa, x1 = 0.3507	0.309	0.343	0.379
10000 kPa, x1 = 0.4004	0.326	0.361	0.399
10000 kPa, x1 = 0.4505	0.338	0.371	0.413
10000 kPa, x1 = 0.501	0.344	0.375	0.418
10000 kPa, x1 = 0.5505	0.343	0.375	0.415
10000 kPa, x1 = 0.6001	0.339	0.367	0.405
10000 kPa, x1 = 0.6499	0.326	0.352	0.387
10000 kPa, x1 = 0.6997	0.308	0.329	0.36
10000 kPa, x1 = 0.8009	0.246	0.257	0.282
10000 kPa, x1 = 0.8506	0.201	0.207	0.228
10000 kPa, x1 = 0.9494	0.0791	0.0806	0.0894

CC(=O)CC(C)=O [2,4-pentanedione] + CCO
excess molar enthalpy [kcal/mol]
Details	298.15 K	313.15 K	328.15 K
100 kPa, x1 = 0.0496	0.0592	0.0668	0.0752
100 kPa, x1 = 0.0992	0.109	0.124	0.142
100 kPa, x1 = 0.1496	0.156	0.175	0.2
100 kPa, x1 = 0.1992	0.193	0.219	0.25
100 kPa, x1 = 0.2491	0.225	0.255	0.29
100 kPa, x1 = 0.2988	0.251	0.283	0.324
100 kPa, x1 = 0.3482	0.273	0.309	0.353
100 kPa, x1 = 0.3988	0.29	0.327	0.373
100 kPa, x1 = 0.4484	0.301	0.34	0.387
100 kPa, x1 = 0.4988	0.309	0.348	0.395
100 kPa, x1 = 0.5476	0.312	0.349	0.396
100 kPa, x1 = 0.5991	0.309	0.345	0.39
100 kPa, x1 = 0.6484	0.3	0.334	0.377
100 kPa, x1 = 0.6976	0.286	0.316	0.355
100 kPa, x1 = 0.7494	0.264	0.29	0.324
100 kPa, x1 = 0.798	0.236	0.256	0.284
100 kPa, x1 = 0.849	0.196	0.211	0.233
100 kPa, x1 = 0.8992	0.146	0.154	0.169
100 kPa, x1 = 0.9485	0.0824	0.0848	0.0934
100 kPa, x1 = 0.9688	0.0518	0.0529	0.0585
10000 kPa, x1 = 0.0496	0.0575	0.0658	0.0749
10000 kPa, x1 = 0.0992	0.109	0.124	0.139
10000 kPa, x1 = 0.1496	0.153	0.174	0.198
10000 kPa, x1 = 0.1992	0.191	0.216	0.246
10000 kPa, x1 = 0.2491	0.223	0.253	0.287
10000 kPa, x1 = 0.2988	0.249	0.282	0.321
10000 kPa, x1 = 0.3482	0.27	0.306	0.348
10000 kPa, x1 = 0.3988	0.287	0.325	0.369
10000 kPa, x1 = 0.4484	0.299	0.338	0.382
10000 kPa, x1 = 0.4988	0.307	0.345	0.391
10000 kPa, x1 = 0.5476	0.309	0.347	0.391
10000 kPa, x1 = 0.5991	0.306	0.342	0.384
10000 kPa, x1 = 0.6484	0.298	0.332	0.371
10000 kPa, x1 = 0.6976	0.284	0.315	0.351
10000 kPa, x1 = 0.7494	0.262	0.289	0.317
10000 kPa, x1 = 0.798	0.234	0.256	0.276
10000 kPa, x1 = 0.849	0.195	0.211	0.224
10000 kPa, x1 = 0.8992	0.143	0.153	0.163
10000 kPa, x1 = 0.9485	0.0813	0.084	0.0911
10000 kPa, x1 = 0.9688	0.0514	0.0524	0.0568

CC(=O)CC(C)=O [2,4-pentanedione] + CO
excess molar enthalpy [kcal/mol]
Details	298.15 K	313.15 K	328.15 K
100 kPa, x1 = 0.0502	0.0494	0.0583	0.0658
100 kPa, x1 = 0.0995	0.0896	0.107	0.122
100 kPa, x1 = 0.1494	0.125	0.15	0.172
100 kPa, x1 = 0.1998	0.154	0.187	0.215
100 kPa, x1 = 0.2496	0.178	0.217	0.251
100 kPa, x1 = 0.3006	0.199	0.243	0.282
100 kPa, x1 = 0.3504	0.215	0.263	0.307
100 kPa, x1 = 0.3995	0.227	0.278	0.325
100 kPa, x1 = 0.4492	0.237	0.289	0.338
100 kPa, x1 = 0.499	0.242	0.295	0.346
100 kPa, x1 = 0.5509	0.244	0.296	0.348
100 kPa, x1 = 0.5989	0.241	0.293	0.342
100 kPa, x1 = 0.6509	0.233	0.284	0.33
100 kPa, x1 = 0.7006	0.221	0.269	0.312
100 kPa, x1 = 0.7507	0.204	0.248	0.286
100 kPa, x1 = 0.8006	0.179	0.219	0.25
100 kPa, x1 = 0.85	0.147	0.183	0.205
100 kPa, x1 = 0.8983	0.109	0.136	0.152
100 kPa, x1 = 0.95	0.057	0.0741	0.0828
10000 kPa, x1 = 0.0501	0.0479	0.058	0.0654
10000 kPa, x1 = 0.0994	0.0879	0.107	0.121
10000 kPa, x1 = 0.1493	0.123	0.15	0.171
10000 kPa, x1 = 0.1997	0.152	0.187	0.214
10000 kPa, x1 = 0.2494	0.176	0.217	0.25
10000 kPa, x1 = 0.3004	0.196	0.243	0.28
10000 kPa, x1 = 0.3502	0.213	0.263	0.304
10000 kPa, x1 = 0.3993	0.225	0.277	0.323
10000 kPa, x1 = 0.449	0.235	0.289	0.335
10000 kPa, x1 = 0.4988	0.24	0.294	0.343
10000 kPa, x1 = 0.5507	0.242	0.296	0.345
10000 kPa, x1 = 0.5987	0.24	0.292	0.34
10000 kPa, x1 = 0.6507	0.233	0.283	0.328
10000 kPa, x1 = 0.7005	0.221	0.269	0.308
10000 kPa, x1 = 0.7505	0.204	0.248	0.282
10000 kPa, x1 = 0.8004	0.179	0.219	0.246
10000 kPa, x1 = 0.8498	0.147	0.182	0.203
10000 kPa, x1 = 0.8982	0.108	0.135	0.151
10000 kPa, x1 = 0.9499	0.0569	0.0725	0.0819

— the NIST ThermoML archive (doi:10.1021/je700492k)
